{"source": "ChEMBL document CHEMBL5244205", "about": "“Discovery of tricyclic dipyrrolopyridine derivatives as novel JAK inhibitors” (Bioorg Med Chem, 2017)", "key": {"[1]": {"target": "Dual specificity mitogen-activated protein kinase kinase 1 (Homo sapiens, UniProt Q02750)", "sequence (Q02750 whole entry)": "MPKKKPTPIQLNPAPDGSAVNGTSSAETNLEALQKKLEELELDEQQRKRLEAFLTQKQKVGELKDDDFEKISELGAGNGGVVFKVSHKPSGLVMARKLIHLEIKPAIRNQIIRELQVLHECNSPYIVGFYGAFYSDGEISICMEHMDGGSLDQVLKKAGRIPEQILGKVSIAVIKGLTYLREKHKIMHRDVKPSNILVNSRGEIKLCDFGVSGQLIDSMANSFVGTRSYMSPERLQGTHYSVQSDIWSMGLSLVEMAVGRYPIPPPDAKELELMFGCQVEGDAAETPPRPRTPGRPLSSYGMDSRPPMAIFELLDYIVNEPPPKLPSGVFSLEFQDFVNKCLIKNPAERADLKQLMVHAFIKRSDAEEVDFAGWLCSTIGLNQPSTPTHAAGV", "test": "Inhibition of MAP2K1 (unknown origin)"}, "Rattus norvegicus [2]": {"test_system": "Rattus norvegicus", "test": "Immunosuppressive activity in Lewis rat transplanted with ACI rat cardiac tissue assessed as reduction in graft rejection by measuring mean survival days at 0.5 mg/kg, po administered for 14 consecutive days co-treated with tacrolimus (reference value: 10 days)", "format": "functional", "details": "time 14 day"}, "[3]": {"target": "Insulin-like growth factor 1 receptor (Homo sapiens, UniProt P08069)", "sequence (P08069 31-736 limits assumed)": "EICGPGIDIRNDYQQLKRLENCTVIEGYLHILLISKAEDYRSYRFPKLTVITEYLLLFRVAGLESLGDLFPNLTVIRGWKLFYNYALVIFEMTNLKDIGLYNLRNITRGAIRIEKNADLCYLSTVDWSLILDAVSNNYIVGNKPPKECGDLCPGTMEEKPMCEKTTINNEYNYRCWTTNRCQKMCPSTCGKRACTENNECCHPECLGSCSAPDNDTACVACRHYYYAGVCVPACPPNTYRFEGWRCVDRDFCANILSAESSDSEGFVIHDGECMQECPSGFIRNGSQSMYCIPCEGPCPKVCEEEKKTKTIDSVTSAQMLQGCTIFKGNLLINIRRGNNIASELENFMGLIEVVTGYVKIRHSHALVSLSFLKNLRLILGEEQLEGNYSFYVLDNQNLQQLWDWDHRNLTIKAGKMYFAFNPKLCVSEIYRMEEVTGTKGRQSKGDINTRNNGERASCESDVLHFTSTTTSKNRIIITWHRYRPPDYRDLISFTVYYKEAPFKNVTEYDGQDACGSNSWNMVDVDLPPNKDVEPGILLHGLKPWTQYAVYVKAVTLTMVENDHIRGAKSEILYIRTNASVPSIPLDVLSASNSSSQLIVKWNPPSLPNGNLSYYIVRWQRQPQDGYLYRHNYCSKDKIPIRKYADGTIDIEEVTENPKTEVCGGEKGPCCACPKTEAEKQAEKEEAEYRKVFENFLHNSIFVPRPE", "sequence (P08069 741-1367 limits assumed)": "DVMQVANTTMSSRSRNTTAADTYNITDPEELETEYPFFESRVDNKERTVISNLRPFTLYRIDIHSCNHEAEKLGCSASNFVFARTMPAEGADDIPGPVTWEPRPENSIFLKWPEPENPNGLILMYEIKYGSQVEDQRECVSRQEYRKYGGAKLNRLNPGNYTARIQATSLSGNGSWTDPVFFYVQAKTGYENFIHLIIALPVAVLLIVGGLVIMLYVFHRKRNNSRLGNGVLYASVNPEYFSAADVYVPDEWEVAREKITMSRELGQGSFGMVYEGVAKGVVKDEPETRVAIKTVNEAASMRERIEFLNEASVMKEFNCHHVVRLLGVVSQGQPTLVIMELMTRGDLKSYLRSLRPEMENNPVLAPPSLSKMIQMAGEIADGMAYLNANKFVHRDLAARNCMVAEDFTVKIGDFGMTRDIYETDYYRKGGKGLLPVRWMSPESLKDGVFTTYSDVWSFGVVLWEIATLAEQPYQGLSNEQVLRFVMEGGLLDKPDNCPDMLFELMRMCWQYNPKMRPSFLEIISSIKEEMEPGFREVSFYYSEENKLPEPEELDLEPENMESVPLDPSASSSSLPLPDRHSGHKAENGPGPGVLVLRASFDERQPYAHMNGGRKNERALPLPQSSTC", "test": "Inhibition of IGF1R (unknown origin)"}, "Aurora kinase C": {"target": "Aurora kinase C (Homo sapiens, UniProt Q9UQB9)", "test": "Inhibition of AURC (unknown origin)"}, "[4]": {"test": "Tmax in Sprague-Dawley rat at 1 mg/kg, po measured up to 24 hrs by LC-MS/MS analysis", "format": "ADME, organism-based", "details": "in vivo"}, "[5]": {"test": "Half life in Sprague-Dawley rat at 1 mg/kg, po measured up to 24 hrs by LC-MS/MS analysis", "format": "ADME, organism-based", "details": "in vivo"}, "[6]": {"test": "Clearance in Sprague-Dawley rat at 1 mg/kg, iv measured up to 24 hrs by LC-MS/MS analysis", "format": "ADME, organism-based", "details": "in vivo"}, "[7]": {"test": "Volume of distribution in Sprague-Dawley rat at 1 mg/kg, iv measured up to 24 hrs by LC-MS/MS analysis", "format": "ADME, organism-based", "details": "in vivo"}, "[8]": {"target": "Glycogen synthase kinase-3 beta (Homo sapiens, UniProt P49841)", "test": "Inhibition of GSK3beta (unknown origin)"}, "[9]": {"target": "Mitogen-activated protein kinase kinase kinase 1 (Homo sapiens, UniProt Q13233)", "test": "Inhibition of MAP3K1 (unknown origin)"}, "Rattus norvegicus [10]": {"test_system": "Rattus norvegicus", "test": "Immunosuppressive activity in Lewis rat transplanted with ACI rat cardiac tissue assessed as reduction in graft rejection by measuring mean survival days at 0.1 mg/kg, po administered for 14 consecutive days co-treated with tacrolimus (reference value: 10 days)", "format": "functional", "details": "time 14 day"}, "Angiopoietin-1 receptor": {"target": "Angiopoietin-1 receptor (Homo sapiens, UniProt Q02763)", "test": "Inhibition of TIE2 (unknown origin)"}, "[11]": {"target": "Inhibitor of nuclear factor kappa-B kinase subunit beta (Homo sapiens, UniProt O14920)", "sequence (O14920 whole entry)": "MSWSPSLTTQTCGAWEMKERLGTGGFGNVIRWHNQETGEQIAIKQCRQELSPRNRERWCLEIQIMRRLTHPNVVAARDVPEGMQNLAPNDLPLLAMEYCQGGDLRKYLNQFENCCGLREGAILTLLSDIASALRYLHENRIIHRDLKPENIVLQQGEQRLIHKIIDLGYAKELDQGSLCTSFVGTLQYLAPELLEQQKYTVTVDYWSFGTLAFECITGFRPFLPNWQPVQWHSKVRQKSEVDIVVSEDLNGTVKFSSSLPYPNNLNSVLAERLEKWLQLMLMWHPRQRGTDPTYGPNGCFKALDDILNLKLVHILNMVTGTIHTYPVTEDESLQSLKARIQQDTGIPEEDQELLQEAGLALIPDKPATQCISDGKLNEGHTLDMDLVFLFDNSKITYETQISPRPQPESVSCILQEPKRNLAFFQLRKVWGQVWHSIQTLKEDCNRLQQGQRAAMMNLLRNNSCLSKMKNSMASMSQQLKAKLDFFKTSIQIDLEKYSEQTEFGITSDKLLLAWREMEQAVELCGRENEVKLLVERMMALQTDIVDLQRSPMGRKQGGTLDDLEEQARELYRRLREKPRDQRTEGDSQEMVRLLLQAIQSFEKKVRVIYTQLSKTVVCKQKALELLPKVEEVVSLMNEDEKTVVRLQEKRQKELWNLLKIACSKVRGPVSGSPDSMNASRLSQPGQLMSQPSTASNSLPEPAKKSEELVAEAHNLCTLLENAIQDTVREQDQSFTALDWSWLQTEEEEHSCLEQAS", "test": "Inhibition of IKKB (unknown origin)"}, "[12]": {"target": "Bone morphogenetic protein receptor type-1A (Homo sapiens, UniProt P36894)", "sequence (P36894 whole entry)": "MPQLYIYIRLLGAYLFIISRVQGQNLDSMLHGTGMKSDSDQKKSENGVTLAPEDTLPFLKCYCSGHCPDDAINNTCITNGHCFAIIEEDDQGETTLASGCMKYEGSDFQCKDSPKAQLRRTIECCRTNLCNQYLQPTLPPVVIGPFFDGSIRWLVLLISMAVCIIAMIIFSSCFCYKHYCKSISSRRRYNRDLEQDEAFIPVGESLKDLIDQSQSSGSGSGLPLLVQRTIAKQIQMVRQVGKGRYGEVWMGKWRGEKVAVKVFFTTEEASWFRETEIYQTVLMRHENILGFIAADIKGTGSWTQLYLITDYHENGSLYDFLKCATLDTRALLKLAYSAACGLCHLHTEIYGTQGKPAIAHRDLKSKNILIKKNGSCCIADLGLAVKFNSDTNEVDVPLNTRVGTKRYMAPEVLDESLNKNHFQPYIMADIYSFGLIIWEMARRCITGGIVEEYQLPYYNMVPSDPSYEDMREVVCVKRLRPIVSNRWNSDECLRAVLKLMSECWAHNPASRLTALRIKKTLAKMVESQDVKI", "test": "Inhibition of BMPR1A (unknown origin)"}, "Rattus norvegicus [13]": {"test_system": "Rattus norvegicus", "test": "Immunosuppressive activity in Lewis rat transplanted with ACI rat cardiac tissue assessed as reduction in graft rejection by measuring mean survival days at 0.25 mg/kg, po administered for 14 consecutive days co-treated with tacrolimus (reference value: 10 days)", "format": "functional", "details": "time 14 day"}, "[14]": {"target": "Tyrosine-protein kinase ZAP-70 (Homo sapiens, UniProt P43403)", "sequence (P43403 whole entry)": "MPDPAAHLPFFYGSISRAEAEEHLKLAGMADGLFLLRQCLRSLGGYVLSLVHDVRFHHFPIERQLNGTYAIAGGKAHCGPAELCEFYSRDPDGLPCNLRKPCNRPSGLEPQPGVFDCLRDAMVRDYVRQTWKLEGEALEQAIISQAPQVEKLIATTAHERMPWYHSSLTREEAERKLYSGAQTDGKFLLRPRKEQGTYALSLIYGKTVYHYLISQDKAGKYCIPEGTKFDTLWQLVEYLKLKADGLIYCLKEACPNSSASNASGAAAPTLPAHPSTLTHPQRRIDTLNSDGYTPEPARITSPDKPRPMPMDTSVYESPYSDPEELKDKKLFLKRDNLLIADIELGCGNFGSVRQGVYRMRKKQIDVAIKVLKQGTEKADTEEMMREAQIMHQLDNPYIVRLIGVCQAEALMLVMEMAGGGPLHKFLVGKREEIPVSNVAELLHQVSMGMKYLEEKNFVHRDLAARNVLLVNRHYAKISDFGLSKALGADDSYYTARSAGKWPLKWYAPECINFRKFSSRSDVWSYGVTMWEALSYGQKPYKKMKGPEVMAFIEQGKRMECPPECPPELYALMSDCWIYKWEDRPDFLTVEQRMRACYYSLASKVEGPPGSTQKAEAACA", "test": "Inhibition of ZAP70 (unknown origin)"}, "[15]": {"target": "MAP kinase-activated protein kinase 2 (Homo sapiens, UniProt P49137)", "test": "Inhibition of MAPKAPK2 (unknown origin)"}, "Ephrin type-A receptor 2": {"target": "Ephrin type-A receptor 2 (Homo sapiens, UniProt P29317)", "test": "Inhibition of EphA2 (unknown origin)"}, "[16]": {"test": "Half life in Sprague-Dawley rat at 1 mg/kg, iv measured up to 24 hrs by LC-MS/MS analysis", "format": "ADME, organism-based", "details": "in vivo"}, "[17]": {"target": "Tyrosine-protein kinase ABL1 (Homo sapiens, UniProt P00519)", "test": "Inhibition of ABL (unknown origin)"}, "[18]": {"target": "Serine/threonine-protein kinase Chk1 (Homo sapiens, UniProt O14757)", "test": "Inhibition of CHK1 (unknown origin)"}, "[19]": {"target": "Tyrosine-protein kinase BTK (Homo sapiens, UniProt Q06187)", "sequence (Q06187 whole entry)": "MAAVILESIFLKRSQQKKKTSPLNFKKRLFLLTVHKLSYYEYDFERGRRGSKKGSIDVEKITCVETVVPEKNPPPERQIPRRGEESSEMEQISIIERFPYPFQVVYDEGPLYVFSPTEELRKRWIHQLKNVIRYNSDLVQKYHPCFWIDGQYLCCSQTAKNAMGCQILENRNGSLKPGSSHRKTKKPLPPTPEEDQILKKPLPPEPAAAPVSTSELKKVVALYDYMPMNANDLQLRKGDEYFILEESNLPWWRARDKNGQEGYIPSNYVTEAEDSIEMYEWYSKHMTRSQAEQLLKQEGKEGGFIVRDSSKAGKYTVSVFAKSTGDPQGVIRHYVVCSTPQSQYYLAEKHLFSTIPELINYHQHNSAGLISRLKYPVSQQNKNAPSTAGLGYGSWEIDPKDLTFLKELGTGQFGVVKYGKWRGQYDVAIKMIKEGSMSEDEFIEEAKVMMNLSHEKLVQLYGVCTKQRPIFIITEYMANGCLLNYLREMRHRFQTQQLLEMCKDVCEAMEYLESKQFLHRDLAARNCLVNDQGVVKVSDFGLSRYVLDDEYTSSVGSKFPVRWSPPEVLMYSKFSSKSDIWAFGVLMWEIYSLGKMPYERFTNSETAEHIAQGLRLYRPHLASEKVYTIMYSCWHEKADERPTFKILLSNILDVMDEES", "test": "Inhibition of BTK (unknown origin)"}, "[20]": {"target": "Mitogen-activated protein kinase 8 (Homo sapiens, UniProt P45983)", "test": "Inhibition of JNK1 (unknown origin)"}, "[21]": {"target": "Tyrosine-protein kinase JAK1 (Homo sapiens, UniProt P23458)", "description": "Inhibition of human JAK1 kinase domain using biotin-Lyn-substrate-2 as substrate incubated for 1 hr by ELISA"}, "[22]": {"target": "Calcium/calmodulin-dependent protein kinase type II subunit alpha (Homo sapiens, UniProt Q9UQM7)", "test": "Inhibition of CAMK2alpha (unknown origin)"}, "[23]": {"test": "AUC (0 to 24 hrs) in Sprague-Dawley rat at 1 mg/kg, po measured up to 24 hrs by LC-MS/MS analysis", "format": "ADME, organism-based", "design": "dose 1 mg/kg, time < 24 hrs, route po", "details": "in vivo"}, "[24]": {"target": "Proto-oncogene tyrosine-protein kinase Src (Homo sapiens, UniProt P12931)", "sequence (P12931 2-536 limits assumed)": "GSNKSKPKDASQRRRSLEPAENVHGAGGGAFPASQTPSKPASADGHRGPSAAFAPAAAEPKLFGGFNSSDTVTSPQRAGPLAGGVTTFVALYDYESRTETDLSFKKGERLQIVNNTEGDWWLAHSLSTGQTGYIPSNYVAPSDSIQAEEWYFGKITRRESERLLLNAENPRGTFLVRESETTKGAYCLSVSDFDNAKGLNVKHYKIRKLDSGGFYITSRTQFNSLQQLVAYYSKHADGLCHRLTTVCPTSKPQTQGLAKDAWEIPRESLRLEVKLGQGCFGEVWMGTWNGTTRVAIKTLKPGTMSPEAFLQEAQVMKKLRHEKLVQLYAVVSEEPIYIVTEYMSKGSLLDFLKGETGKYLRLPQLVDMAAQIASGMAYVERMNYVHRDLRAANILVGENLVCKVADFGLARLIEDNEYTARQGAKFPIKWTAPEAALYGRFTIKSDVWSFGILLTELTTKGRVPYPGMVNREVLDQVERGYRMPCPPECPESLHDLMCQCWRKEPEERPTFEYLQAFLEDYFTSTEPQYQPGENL", "test": "Inhibition of SRC (unknown origin)"}, "[25]": {"test": "AUC (0 to 24 hrs) in Sprague-Dawley rat at 1 mg/kg, iv measured up to 24 hrs by LC-MS/MS analysis", "format": "ADME, organism-based", "design": "dose 1 mg/kg, time < 24 hrs, route iv", "details": "in vivo"}, "Cytochrome P450 3A4": {"target": "Cytochrome P450 3A4 (Homo sapiens, UniProt P08684)", "details": "microsomes, 20 min, 5 µM"}, "[26]": {"test": "Oral availability in Sprague-Dawley rat at 1 mg/kg measured up to 24 hrs by LC-MS/MS analysis", "format": "ADME, organism-based", "details": "in vivo"}, "[27]": {"target": "Ribosomal protein S6 kinase beta-1 (Homo sapiens, UniProt P23443)", "test": "Inhibition of p70S6K (unknown origin)"}}, "note": "pIC50: −log10 of the molar value.", "data": [{"molecule": "C[C@@H]1CCN(C(=O)CC#N)C[C@@H]1n1ccc2cnc3[nH]ccc3c21", "values": [{"measurement": "pIC50", "setting": "[1]", "result": "< 6.00"}, {"measurement": "MST", "setting": "Rattus norvegicus [2]", "result": 21, "unit": "days"}, {"measurement": "pIC50", "setting": "[3]", "result": "< 6.00"}, {"measurement": "pIC50", "setting": "Aurora kinase C", "result": "< 6.00"}, {"measurement": "Tmax", "setting": "[4]", "result": 0.5, "unit": "h"}, {"measurement": "half-life", "setting": "[5]", "result": 2.58, "unit": "h"}, {"measurement": "clearance", "setting": "[6]", "result": 18.8, "unit": "mL/min/kg"}, {"measurement": "Vd", "setting": "[7]", "result": 1.52, "unit": "L/kg"}, {"measurement": "pIC50", "setting": "[8]", "result": "< 6.00"}, {"measurement": "pIC50", "setting": "[9]", "result": "< 6.00"}, {"measurement": "MST", "setting": "Rattus norvegicus [10]", "result": 9, "unit": "days"}, {"measurement": "pIC50", "setting": "Angiopoietin-1 receptor", "result": "< 6.00"}, {"measurement": "pIC50", "setting": "[11]", "result": "< 6.00"}, {"measurement": "pIC50", "setting": "[12]", "result": "< 6.00"}, {"measurement": "MST", "setting": "Rattus norvegicus [13]", "result": 21, "unit": "days"}, {"measurement": "pIC50", "setting": "[14]", "result": "< 6.00"}, {"measurement": "pIC50", "setting": "[15]", "result": "< 6.00"}, {"measurement": "pIC50", "setting": "Ephrin type-A receptor 2", "result": "< 6.00"}, {"measurement": "half-life", "setting": "[16]", "result": 1.64, "unit": "h"}, {"measurement": "pIC50", "setting": "[17]", "result": "< 6.00"}, {"measurement": "pIC50", "setting": "[18]", "result": "< 6.00"}, {"measurement": "pIC50", "setting": "[19]", "result": "< 6.00"}, {"measurement": "pIC50", "setting": "[20]", "result": "< 6.00"}, {"measurement": "pIC50", "setting": "[21]", "result": 9.34}, {"measurement": "pIC50", "setting": "[22]", "result": "< 6.00"}, {"measurement": "AUC(0-t) at 24 h", "setting": "[23]", "result": 917, "unit": "ng·h/mL"}, {"measurement": "pIC50", "setting": "[24]", "result": "< 6.00"}, {"measurement": "AUC(0-t) at 24 h", "setting": "[25]", "result": 889, "unit": "ng·h/mL"}, {"measurement": "TDI", "setting": "Cytochrome P450 3A4", "result": 89, "unit": "%"}, {"measurement": "bioavailability", "setting": "[26]", "result": 103, "unit": "%"}, {"measurement": "pIC50", "setting": "[27]", "result": "< 6.00"}]}]}
